Data set [1] deals with recurrent or metastatic squamous carcinoma of the uterine cervix. To be noted: single agent, cited from earlier work.
For data set [2], the system named is HuPrime® cervical xenograft model CV1248 [P3]. The data set is described as follows: Cervical cancer PDX mouse model, tisotumab vedotin with carboplatin (Example 3). The data set is classed as in vivo, BALB/c nude mice. Particulars: for Tumor growth (FIGS. 3A and 3B): single agent, tisotumab vedotin 2 mg/kg, carboplatin 40 or 80 mg/kg, day 0, 7, 14 intravenous. The protocol: The in vivo anti-tumor efficacy of tisotumab vedotin in combination with carboplatin was evaluated in a patient-derived xenograft (PDX) mouse model in female BALB/c nude mice (Crown Bioscience [Taicang] Inc.). Xenografts were derived from tumor specimens from cancer patients. Tumor fragments were obtained from xenografts in serial passage in nude mice. Tumors were cut into fragments of 2-4 mm diameter and placed in phosphate-buffered saline (PBS) until subcutaneous implantation. A cervical cancer PDX model (HuPrime® cervical xenograft model CV1248 [P3]; Crown Bioscience Inc.) was used in this experiment. Tumor size was determined by caliper measurement at least two times a week and tumor volume was calculated as […]. When tumors reached an average volume of 150 mm^3, mice were randomized in 7 groups (10 mice per treatment group). The day of randomization was designated day 0. Mice were treated with the following by intravenous injections: 1) tisotumab vedotin alone at a dose level of 2 mg/kg, provided on day 0, day 7 and day 14; 2) carboplatin (Selleck Chemicals, cat. no. S121511) alone at a dose of 40 mg/kg or 80 mg/kg, provided on day 0, day 7 and day 14; 3) tisotumab vedotin at a dose level of 2 mg/kg, provided on day 0, day 7 and day 14 in combination with carboplatin at a dose of 40 mg/kg or 80 mg/kg, provided on day 0, day 7 and day 14; 4) IgG1 isotype control at a dose of 2 mg/kg provided on day 0, day 7 and day 14; or 5) IgG1-MMAE control at a dose of 2 mg/kg provided on day 0, day7 and day 14. […] Mice were housed in individually ventilated (IVC) cages, up to a maximum of five mice per cage and identified by ear tags. To determine whether there were statistically significant differences between tumor volumes in control and treatment groups, tumor volumes in the treatment groups were compared with those in the control group (e.g., treatment groups vs IgG1-MMAE control) and combination treatment groups were compared with groups treated with either of the compounds alone, using Mann-Whitney analysis at the last day that all groups were intact, i.e., day 20. For analysis of progression-free survival time (tumor size cut-off 750 mm^3), Mantel-Cox analysis was performed on Kaplan-Meier plots.

Data set [3] has as its system bladder xenograft model BXF1036. Briefly: Bladder cancer PDX mouse model, tisotumab vedotin with cisplatin (Example 2). In kind it is in vivo, Crl:NMRI-Foxn1^nu nude mice. To be noted: single agent; for Tumor growth (FIG. 2A-C): tisotumab vedotin 0.5 mg/kg day 1 intravenously, cisplatin 2 mg/kg day 1 and 8 subcutaneously; for Survival (FIG. 2D): tisotumab vedotin 0.5 mg/kg, cisplatin 2 mg/kg, tumor size cut-off 500 mm^3. The protocol: The in vivo anti-tumor efficacy of tisotumab vedotin in combination with cisplatin was evaluated in A PDX mouse model in female Crl:NMRI-Foxn1^nu (Envigo RMS SARL, France) nude mice (Charles River Discovery Research Services). Xenografts were derived from tumor specimens from cancer patients. Establishment and characterization of the PDX model was performed following primary implantation into nude mice. Tumor xenografts were passaged approximately three to five times until establishment of stable growth patterns. Tumor fragments were obtained from xenografts in serial passage in nude mice. Tumors were cut into fragments of 3-4 mm diameter and placed in phosphate-buffered saline (PBS) until subcutaneous implantation. A bladder cancer PDX model (bladder xenograft model BXF1036; Charles River Discovery Research Services) was used in this experiment. Tumor size was determined by caliper measurement at least two times a week and tumor volume was calculated as 0.52×length×width. When tumors reached the volume of 50-250 mm^3, mice were randomized in 5 groups (10 mice per treatment group). Mice were treated with the following: 1) tisotumab vedotin alone at a dose level of 0.5 mg/kg provided on day 1 of treatment; 2) cisplatin alone at a dose of 2 mg/kg provided on day 1 and day 8 of treatment; 3) tisotumab vedotin at a dose level of 0.5 mg/kg provided on day 1 of treatment in combination with cisplatin at a dose of 2 mg/kg provided on day 1 and day 8 of treatment; 4) IgG1 isotype control at a dose of 0.5 mg/kg provided on day 1 of treatment; or 5) IgG1-MMAE control at a dose of 0.5 mg/kg provided on day 1 of treatment. IgG1 isotype control, IgG1-MMAE control and tisotumab vedotin were each in PBS and injected intravenously. Cisplatin was in 0.9% NaCl and injected subcutaneously. […] Mice were housed in individually ventilated (IVC) cages, with a maximum of five mice per cage, and identified by ear tags.
To determine whether there were statistically significant differences between tumor volumes in control and treatment groups, tumor volumes in the treatment groups were compared with those in the control groups (e.g., IgG1-MMAE control, tisotumab vedotin alone or cisplatin alone) using Mann-Whitney analysis at the last day that all groups were intact, i.e., day 25. Statistical analysis of the difference between groups treated with tisotumab vedotin in combination with cisplatin and groups treated with either tisotumab vedotin alone or cisplatin alone was performed on day 32.
Tumor progression was plotted in a Kaplan-Meier plot, with a cut-off set at a tumor volume >500 mm^3. […]

The test system of data set [4] is stage IVB, recurrent, or persistent squamous cell carcinoma of the cervix. Particulars: cited from earlier work.
In data set [5] the test system is HuPrime® cervical xenograft model CV1248 [R4P5]. The data set is described as follows: Cervical cancer PDX mouse model, tisotumab vedotin with cisplatin (Example 1). The data set is classed as in vivo, BALB/c nude mice. Particulars: single agent; for Tumor growth (FIG. 1A-C): tisotumab vedotin 2 mg/kg and 4 mg/kg day 0, 7, cisplatin 4 mg/kg day 0, 7, 14, intravenous; for Survival (FIGS. 1D and 1E): tisotumab vedotin 2 mg/kg and 4 mg/kg, cisplatin 4 mg/kg, tumor size cut-off 1000 mm^3. The protocol:
The in vivo anti-tumor efficacy of tisotumab vedotin in combination with cisplatin was evaluated in a patient-derived xenograft (PDX) mouse model in BALB/c nude mice (Crown Bioscience Inc.). Xenografts were derived from tumor specimens from cancer patients. Establishment and characterization of the PDX model was performed following primary implantation into nude mice. Tumor xenografts were passaged approximately three to five times until establishment of stable growth patterns. Tumor fragments were obtained from xenografts in serial passage in nude mice. Tumors were cut into fragments of 2-3 mm diameter and placed in phosphate-buffered saline (PBS) until subcutaneous implantation. A cervical cancer PDX model (HuPrime® cervical xenograft model CV1248 [R4P5]; Crown Bioscience Inc.) was used in this experiment. Tumor size was determined by caliper measurement at least two times a week and tumor volume was calculated as 0.5×length×width. When tumors reached the volume of 200 mm^3, mice were randomized in 11 groups (7-8 mice per treatment group). Mice were treated with the following by intravenous injections: 1) tisotumab vedotin alone at a dose level of 0.5 mg/kg, 1 mg/kg, 2 mg/kg or 4 mg/kg provided on day 0 and day 7 of treatment; 2) cisplatin alone at a dose of 4 mg/kg provided on day 0, day 7 and day 14 of treatment; 3) tisotumab vedotin at a dose level of 0.5 mg/kg, 1 mg/kg, 2 mg/kg or 4 mg/kg provided on day 0 and day 7 of treatment in combination with cisplatin at a dose of 4 mg/kg provided on day 0, day 7 and day 14 of treatment; 4) IgG1 isotype control at a dose of 4 mg/kg provided on day 0 and day 7 of treatment; or 5) IgG1-MMAE control at a dose of 4 mg/kg provided on day 0 and day 7 of treatment. […] Mice were housed in individually ventilated (IVC) cages, four or five mice per cage and identified by ear tags.
To determine whether there were statistically significant differences between tumor volumes in control and treatment groups, tumor volumes in the treatment groups were compared with those in the control group (e.g., treatment groups vs IgG1-MMAE control) using Mann-Whitney analysis at the last day that all groups were intact, i.e., day 38. For survival analysis (tumor volume cut-off was 1,000 mm^3). Mantel-Cox analysis was performed on Kaplan-Meier plots with a cut-off set at tumor volume >1,000 mm^3.

Data set [6] concerns relapsed, recurrent, and/or metastatic cervical cancer. Particulars: cited from earlier work.
Data set [7] has as its system PD-L1-positive recurrent or metastatic cervical cancer (r/mCC). To be noted: 2 L+; 42% of patients previously treated with bevacizumab; cited from earlier work.

As for `N.N.O=C([O-])C1(C(=O)[O-])CCC1.[Pt+2]` [Carboplatin, carboplatin], in data set [1] (6/41), the overall response rate is given as 15%. Also, in data set [1], the “major toxic effects: anemia” value is listed as 47%; the “major toxic effects: leukopenia” value is 38%; the “major toxic effects: nausea and vomiting” value is 48%; the “major toxic effects: thrombocytopenia” value is 22%. The “Average tumor volume Mann-Whitney Day 20 P value” in data set [2] (carboplatin 40 mg/kg vs IgG1-MMAE) is on record as 0.5787. Further, the “Average tumor volume Mann-Whitney Day 20 P value” in data set [2] (carboplatin 80 mg/kg vs IgG1-MMAE) turned out to be 0.1716. Moreover, the “Tumor growth (FIGS. 3A and 3B)” value in data set [2] is “did not inhibit tumor growth”.
On to `N.N.[Cl][Pt][Cl]` [Cisplatin], for which, in data set [3], the “Tumor growth (FIG. 2A-C)” value is given as “inhibited tumor growth” and the “Survival (FIG. 2D)” value is “prolonged survival”. In addition, the “median PFS” value in data set [4] (P<0.001 between arms) is on record as 2.8 months. Besides, the “Objective responses (OR)” value in data set [4] (P=0.002 between arms) is listed as 19%. In addition, the median survival in data set [4] (at the time of data cutoff, no difference) is listed as 8.8 months. For the same compound, in data set [4] (in vivo), the “Objective responses: complete” value was 6% and the “Objective responses: partial” value is 13%. Besides, in data set [5], the “Tumor growth (FIG. 1A-C)” value is “inhibited tumor growth”; the “Survival (FIGS. 1D and 1E)” value is given as “prolonged survival”.
With Tisotumab vedotin, in data set [6] (in vivo), the “AEs of grade 1-2 conjunctivitis” value was “frequently reported”; the “Clinically relevant perturbations in activated partial thromboplastin time (aPTT) or prothrombin time (PT)” value is “have not been observed”; the “Epistaxis, frequency among bleeding AEs” value is given as “most common reported AE”; the “Epistaxis, severity” value is “nearly all of the cases are grade 1”. Besides, in data set [6] (in vivo), the “Peripheral neuropathy, grade of the majority of the reported cases” value is on record as “grade 1-2”. The “Peripheral neuropathy, share of subjects” value in data set [6] (subjects who received treatment with tisotumab vedotin) is listed as “approximately 35%”. In data set [3], the “Tumor growth (FIG. 2A-C)” value was “efficiently inhibited tumor growth” and the “Survival (FIG. 2D)” value is recorded as “prolonged survival”. In data set [2], the “Tumor growth (FIGS. 3A and 3B)” value is “efficiently inhibited tumor growth”. Further, the “Average tumor volume Mann-Whitney Day 20 P value” in data set [2] (tisotumab vedotin 2 mg/kg vs IgG1-MMAE) is 0.0068. In addition, in data set [5], the “Tumor growth (FIG. 1A-C)” value is “efficiently inhibited tumor growth”; the “Survival (FIGS. 1D and 1E)” value is reported as “prolonged survival”.
With pembrolizumab, the “objective response rate (ORR)” value in data set [7] is recorded as 14%.
